Reference: patent US20230391772A1, “METHODS AND COMPOSITIONS FOR TARGETED PROTEIN DEGRADATION” (Ranok Therapeutics (Hangzhou) Co. Ltd., priority 2020, published 2023)

How the values were obtained:
HSP90a protein = target: T1, HSP90a protein (Homo sapiens, UniProt P07900); experiment: HSP90α-binding fluorescent polarization (FP) assay, BODIPY-labeled RNK04010 probe; conditions: FP competition with RNK04010 (BODIPY-labeled), 5 nM, 300 min at 25° C.
T1 construct: purchased BPS Bioscience 50298
In short: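 Competitive FP with N-terminal HSP90a; probe at 5 nM final, either BODIPY-labeled triazolone RNK04010 or FITC-geldanamycin. Test compounds as 2.5-fold dilutions from 20 μM to 5.2 nM. Incubated at 25 °C for 300 min (RNK04010) or 120 min (FITC-geldanamycin) before reading polarization.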

[1] = test system: NCI-H358 human non-small cell lung cancer; experiment: NCI-H358 CCK-8 proliferation assay; type: cell-based; conditions: NCI-H358 cells, 72 hr
In short: (§1)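 MIA PaCa-2 (2 copies KRAS(G12C)), NCI-H358 and NCI-H23 (1 copy KRAS(G12C) each) were exposed to compound in 3-fold serial dilutions from 20 μM to 1.02 nM. Viability was read as CCK-8 absorbance, and % inhibition was computed against DMSO-treated cells, with cell-free DMSO medium as blank.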

KRAS(G12C) = KRAS(G12C) (Homo sapiens, UniProt P01116, G12C); experiment: KRAS(G12C)/SOS1 homogeneous time-resolved fluorescence (HTRF) assay; parameters: purchased Cisbio 63ADK000CB16PEG; conditions: absence of GTP, 4° C. for 3 hr, read-out: KRAS (G12C) binding
In short: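 HTRF kit measuring compound-induced block of KRAS(G12C)-SOS1 interaction without GTP. Compounds tested as 3-fold serial dilutions down to 1.02 nM, incubated with reaction components 3 h at 4 °C in sealed plates before fluorescence read.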

[2] = test system: NCI-H23 human non-small cell lung cancer; experiment: NCI-H23 CCK-8 proliferation assay; type: cell-based; conditions: NCI-H23 cells, 72 hr
In short: as §1

[3] = test system: MIA PaCa-2 human pancreatic carcinoma; experiment: MIA PaCa-2 CCK-8 proliferation assay; type: cell-based; conditions: Homo sapiens, MIA PaCa-2, 72 h, MIA PaCa-2 cells
In short: as §1

Chain of KRAS(G12C) (P01116 1-188 isoform P01116-2 G12C): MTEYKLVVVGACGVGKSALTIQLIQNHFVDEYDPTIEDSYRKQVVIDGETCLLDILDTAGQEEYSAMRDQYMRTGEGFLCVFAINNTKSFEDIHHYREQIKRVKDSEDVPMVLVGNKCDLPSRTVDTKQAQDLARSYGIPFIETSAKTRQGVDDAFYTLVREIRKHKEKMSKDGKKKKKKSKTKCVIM

IC50 (HSP90a protein) [nM]	EC50 [1] [nM]	IC50 (KRAS(G12C)) [nM]	EC50 [2] [nM]	EC50 [3] [nM]	Compound
100 to 1000	100 to 1000	> 1000	100 to 1000		CCC(=O)N1CCN(c2nc(NCCC(=O)NCc3ccc(CN4CCC(Cc5ccc(-n6c(C(=O)NCC(F)(F)F)nnc6-c6cc(C(C)C)c(O)cc6O)cc5)CC4)cc3)nc3c2CCN(c2cc(O)cc4ccccc24)C3)CC1 [Compound 62, 5-(2,4-dihydroxy-5-isopropylphenyl)-4-(4-((1-(4-((3-((7-(3-hydroxynaphthalen-1-yl)-4-(4-propionylpiperazin-1-yl)-5,6,7,8-tetrahydropyrido[3,4-d]pyrimidin-2-yl)amino)propanamido)methyl)benzyl)piperidin-4-yl)methyl)phenyl)-N-(2,2,2-trifluoroethyl)-4H-1,2,4-triazole-3-carboxamide, trifluoroacetic acid]
100 to 1000	100 to 1000	> 1000	100 to 1000		C=CC(=O)N1CCN(c2nc(NCCC(=O)N3CCC(CN4CCN(Cc5ccc(-n6c(C(=O)NCC(F)(F)F)nnc6-c6cc(C)c(O)cc6O)cc5)CC4)CC3)nc3c2CCN(c2cccc4cccc(Cl)c24)C3)C[C@H]1CC#N [Compound 79, (R)-4-(4-((4-((1-(3-((4-(4-acryloyl-3-(cyanomethyl)piperazin-1-yl)-7-(8-chloronaphthalen-1-yl)-5,6,7,8-tetrahydropyrido[3,4-d]pyrimidin-2-yl)amino)propanoyl)piperidin-4-yl)methyl)piperazin-1-yl)methyl)phenyl)-5-(2,4-dihydroxy-5-methylphenyl)-N-(2,2,2-trifluoroethyl)-4H-1,2,4-triazole-3-carboxamide, trifluoroacetic acid]
< 100	100 to 1000		100 to 1000	100 to 1000	CC(=O)N1CCN(c2nc(NCCC(=O)N3CCC(CN4CCN(Cc5ccc(-n6c(O)nnc6-c6cc(C(C)C)c(O)cc6O)cc5)CC4)CC3)nc3c2CCN(c2cc(O)cc4ccccc24)C3)CC1 [Compound 21, 3-((4-(4-acetylpiperazin-1-yl)-7-(3-hydroxynaphthalen-1-yl)-5,6,7,8-tetrahydropyrido[3,4-d]pyrimidin-2-yl)amino)-1-(4-((4-(4-(3-(2,4-dihydroxy-5-isopropylphenyl)-5-hydroxy-4H-1,2,4-triazol-4-yl)benzyl)piperazin-1-yl)methyl)piperidin-1-yl)propan-1-one, trifluoroacetic acid]
< 100	100 to 1000		100 to 1000	100 to 1000	C=CC(=O)N1CCN(c2nc(NCCC(=O)NCc3ccc(CN4CCC(Cc5ccc(-n6c(C(=O)NCC(F)(F)F)nnc6-c6cc(C(C)C)c(O)cc6O)cc5)CC4)cc3)nc3c2CCN(c2cc(O)cc4ccccc24)C3)CC1 [Compound 25, 4-(4-((1-(4-((3-((4-(4-acryloylpiperazin-1-yl)-7-(3-hydroxynaphthalen-1-yl)-5,6,7,8-tetrahydropyrido[3,4-d]pyrimidin-2-yl)amino)propanamido)methyl)benzyl)piperidin-4-yl)methyl)phenyl)-5-(2,4-dihydroxy-5-isopropylphenyl)-N-(2,2,2-trifluoroethyl)-4H-1,2,4-triazole-3-carboxamide, trifluoroacetic acid]
100 to 1000	100 to 1000	> 1000	100 to 1000		C=CC(=O)N1CCN(c2nc(NCCC(=O)N3CCC(CN4CCN(Cc5ccc(-n6c(C(=O)NCC(F)(F)F)nnc6-c6cc(CC)c(O)cc6O)cc5)CC4)CC3)nc3c2CCN(c2cccc4ccccc24)C3)C[C@H]1CC#N [Compound 76, (R)-4-(4-((4-((1-(3-((4-(4-acryloyl-3-(cyanomethyl)piperazin-1-yl)-7-(naphthalen-1-yl)-5,6,7,8-tetrahydropyrido[3,4-d]pyrimidin-2-yl)amino)propanoyl)piperidin-4-yl)methyl)piperazin-1-yl)methyl)phenyl)-5-(5-ethyl-2,4-dihydroxyphenyl)-N-(2,2,2-trifluoroethyl)-4H-1,2,4-triazole-3-carboxamide, trifluoroacetic acid]
100 to 1000	100 to 1000	> 1000	100 to 1000		C=CC(=O)N1CCN(c2nc(NCCC(=O)N3CCC(CN4CCN(Cc5ccc(-n6c(C(=O)NCC(F)(F)F)nnc6-c6cc(CC)c(O)cc6O)cc5)CC4)CC3)nc3c2CCN(c2cc(O)cc4ccccc24)C3)CC1 [Compound 17, 4-(4-((4-((1-(3-((4-(4-acryloylpiperazin-1-yl)-7-(3-hydroxynaphthalen-1-yl)-5,6,7,8-tetrahydropyrido[3,4-d]pyrimidin-2-yl)amino)propanoyl)piperidin-4-yl)methyl)piperazin-1-yl)methyl)phenyl)-5-(5-ethyl-2,4-dihydroxyphenyl)-N-(2,2,2-trifluoroethyl)-4H-1,2,4-triazole-3-carboxamide, trifluoroacetic acid]
100 to 1000	100 to 1000	> 1000	100 to 1000		C=CC(=O)N1CCN(c2nc(NCCC(=O)NCC3CCC(C(=O)N4CCN(Cc5ccc(-n6c(O)nnc6-c6cc(CC)c(O)cc6O)cc5)CC4)CC3)nc3c2CCN(c2cc(O)cc4ccccc24)C3)CC1 (centres unmarked) [Compound 23, 3-((4-(4-acryloylpiperazin-1-yl)-7-(3-hydroxynaphthalen-1-yl)-5,6,7,8-tetrahydropyrido[3,4-d]pyrimidin-2-yl)amino)-N-((4-(4-(4-(3-(5-ethyl-2,4-dihydroxyphenyl)-5-hydroxy-4H-1,2,4-triazol-4-yl)benzyl)piperazine-1-carbonyl)cyclohexyl)methyl)propanamide, trifluoroacetic acid]
< 100	100 to 1000		100 to 1000	100 to 1000	CCC(=O)N1CCN(c2nc(NCCC(=O)N3CCC(CN4CCN(Cc5ccc(-n6c(C(=O)NC7CC7)nnc6-c6cc(CC)c(O)cc6O)cc5)CC4)CC3)nc3c2CCN(c2cc(O)cc4ccccc24)C3)CC1 [Compound 116, N-cyclopropyl-5-(5-ethyl-2,4-dihydroxyphenyl)-4-(4-((4-((1-(3-((7-(3-hydroxynaphthalen-1-yl)-4-(4-propionylpiperazin-1-yl)-5,6,7,8-tetrahydropyrido[3,4-d]pyrimidin-2-yl)amino)propanoyl)piperidin-4-yl)methyl)piperazin-1-yl)methyl)phenyl)-4H-1,2,4-triazole-3-carboxamide, trifluoroacetic acid]
100 to 1000	100 to 1000	> 1000	100 to 1000		C=CC(=O)N1CCN(c2nc(NCCC(=O)NCc3ccc(CN4CCC(Cc5ccc(-n6c(C(=O)NCC(F)(F)F)nnc6-c6cc(C(C)C)c(O)cc6O)cc5)CC4)cc3)nc3c2CCN(c2cccc4ccccc24)C3)C[C@H]1CC#N [Compound 95, (R)-4-(4-((1-(4-((3-((4-(4-acryloyl-3-(cyanomethyl)piperazin-1-yl)-7-(naphthalen-1-yl)-5,6,7,8-tetrahydropyrido[3,4-d]pyrimidin-2-yl)amino)propanamido)methyl)benzyl)piperidin-4-yl)methyl)phenyl)-5-(2,4-dihydroxy-5-isopropylphenyl)-N-(2,2,2-trifluoroethyl)-4H-1,2,4-triazole-3-carboxamide, trifluoroacetic acid]
100 to 1000	100 to 1000	> 1000	100 to 1000		CCC(=O)N1CCN(c2nc(NCCC(=O)N3CCC(CN4CCN(Cc5ccc(-n6c(C(=O)NC(C)C)nnc6-c6cc(CC)c(O)cc6O)cc5)CC4)CC3)nc3c2CCN(c2cc(O)cc4ccccc24)C3)CC1 [Compound 64, 5-(5-ethyl-2,4-dihydroxyphenyl)-4-(4-((4-((1-(3-((7-(3-hydroxynaphthalen-1-yl)-4-(4-propionylpiperazin-1-yl)-5,6,7,8-tetrahydropyrido[3,4-d]pyrimidin-2-yl)amino)propanoyl)piperidin-4-yl)methyl)piperazin-1-yl)methyl)phenyl)-N-isopropyl-4H-1,2,4-triazole-3-carboxamide, trifluoroacetic acid]
< 100	< 100		100 to 1000	100 to 1000	CCNC(=O)c1nnc(-c2cc(CC)c(O)cc2O)n1-c1ccc(CN2CCN(CC3CCN(C(=O)CCNc4nc5c(c(N6CCN(C(=O)CC)CC6)n4)CCN(c4cc(O)cc6ccccc46)C5)CC3)CC2)cc1 [Compound 121, N-ethyl-5-(5-ethyl-2,4-dihydroxyphenyl)-4-(4-((4-((1-(3-((7-(3-hydroxynaphthalen-1-yl)-4-(4-propionylpiperazin-1-yl)-5,6,7,8-tetrahydropyrido[3,4-d]pyrimidin-2-yl)amino)propanoyl)piperidin-4-yl)methyl)piperazin-1-yl)methyl)phenyl)-4H-1,2,4-triazole-3-carboxamide, trifluoroacetic acid]
